{
  "source": "patent US20060276393A1",
  "about": "“Novel compositions for preventing and treating neurodegenerative and blood coagulation disorders” (Sirtris Pharmaceuticals, Inc., priority 2005, published 2006)",
  "key": {"S. cerevisiae": {"test_system": "S. cerevisiae", "assay": "Yeast chronological lifespan", "format": "cell-based", "settings": "10 μM or 100 μM, nutrient deprived state"}, "Human 293": {"test_system": "Human 293", "assay": "Survival of 293 cells", "settings": "50 micromolar"}, "recombinant dSir2": {"molecular_target": "T1, recombinant dSir2 (Drosophila melanogaster, UniProt Q9VK34)", "T1 sequence (Q9VK34 1-823)": "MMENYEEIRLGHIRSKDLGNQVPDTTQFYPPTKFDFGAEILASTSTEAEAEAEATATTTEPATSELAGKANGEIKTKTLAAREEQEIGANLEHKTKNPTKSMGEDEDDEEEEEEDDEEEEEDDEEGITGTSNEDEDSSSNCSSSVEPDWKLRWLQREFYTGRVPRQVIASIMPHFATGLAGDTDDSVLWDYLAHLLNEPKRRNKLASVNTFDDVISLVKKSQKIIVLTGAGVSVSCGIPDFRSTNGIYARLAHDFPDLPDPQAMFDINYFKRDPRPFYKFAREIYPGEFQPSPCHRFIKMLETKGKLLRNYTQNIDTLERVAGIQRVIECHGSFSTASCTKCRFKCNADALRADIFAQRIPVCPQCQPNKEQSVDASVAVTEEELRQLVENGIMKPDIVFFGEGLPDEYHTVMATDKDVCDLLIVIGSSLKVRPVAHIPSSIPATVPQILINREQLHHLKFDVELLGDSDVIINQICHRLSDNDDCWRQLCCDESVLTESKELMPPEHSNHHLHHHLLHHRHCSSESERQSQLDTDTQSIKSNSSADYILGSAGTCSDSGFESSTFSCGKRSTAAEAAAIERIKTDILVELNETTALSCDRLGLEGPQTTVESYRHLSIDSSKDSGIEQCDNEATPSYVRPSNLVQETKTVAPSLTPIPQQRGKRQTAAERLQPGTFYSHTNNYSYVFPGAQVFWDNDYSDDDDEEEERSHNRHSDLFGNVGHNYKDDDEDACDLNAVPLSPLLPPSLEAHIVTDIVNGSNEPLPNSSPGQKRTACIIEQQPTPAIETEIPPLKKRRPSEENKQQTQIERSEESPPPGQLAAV", "assay": "dSir2 deacetylation assay", "format": "biochemical, D. melanogaster", "settings": "dose-dependent; Fluor de Lys"}, "Human recombinant SIRT2": {"molecular_target": "T2, Human recombinant SIRT2 (Homo sapiens, UniProt Q8IXJ6)", "T2 sequence (Q8IXJ6 1-389)": "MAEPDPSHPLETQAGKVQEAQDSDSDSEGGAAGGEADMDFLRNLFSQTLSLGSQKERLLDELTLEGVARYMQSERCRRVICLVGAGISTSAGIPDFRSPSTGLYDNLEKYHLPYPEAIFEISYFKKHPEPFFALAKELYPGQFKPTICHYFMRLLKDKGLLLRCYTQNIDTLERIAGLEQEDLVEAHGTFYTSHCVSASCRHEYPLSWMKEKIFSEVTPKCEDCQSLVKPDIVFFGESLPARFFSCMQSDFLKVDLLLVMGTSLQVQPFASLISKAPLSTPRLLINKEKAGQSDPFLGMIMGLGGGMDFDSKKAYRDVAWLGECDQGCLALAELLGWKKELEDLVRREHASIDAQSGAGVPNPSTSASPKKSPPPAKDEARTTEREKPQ", "assay": "SIRT2 deacetylation assay", "format": "biochemical", "settings": "increasing resveratrol; 25 μM Fluor de Lys-SIRT2, 25 μM NAD+, 20 min 37° C.", "description": "Yeast Sir2 and human SIRT1 are very homologous and differ from human SIRT2 by the addition of an N-terminal domain that is absent in SIRT2. […] Thus, based on the difference in structure of SIRT1 and SIRT2, i.e., the absence of an N-terminal domain (see FIG. 8), it is believed that the N-terminal domain of SIRT1 and Sir2 is necessary for activation by the compounds described herein. In particular, it is likely that the activator compounds described herein interact with the N-terminal portion of sirtuins. The N-terminal portion of SIRT1 that is necessary for the action of the compounds is from about amino acid 1 to about amino acid 176, and that of Sir2 is from about amino acid 1 to about amino acid 175."}},
  "data": [
    {"smiles": "Oc1ccc(/C=C/c2cc(O)cc(O)c2)cc1", "note": "[Resveratrol, 3,5,4′-Trihydroxy-trans-stilbene]", "values": [
      {"measurement": "chronological lifespan", "setting": "S. cerevisiae", "value": "failed to extend chronological lifespan"},
      {"measurement": "Survival of 293 cells", "setting": "Human 293; 0 h", "value": 100, "unit": "%"},
      {"measurement": "Survival of 293 cells", "setting": "Human 293; 48 h", "value": 5, "unit": "%"},
      {"measurement": "Survival of 293 cells", "setting": "Human 293; 96 h", "value": 0, "unit": "%"},
      {"measurement": "stimulated deacetylation (maximum)", "setting": "recombinant dSir2", "value": "≤ 2.4", "unit": "fold"},
      {"measurement": "SIRT2 activity", "setting": "Human recombinant SIRT2", "value": "decrease SIRT2 activity"}
    ]}
  ]
}
